PubChem BioAssay AID248 (DTP/NCI, 2004)
Where “and” joins values, the source holds several entries; their conditions need not be identical. Equal entries are not always repeated. Toxic doses and inconclusive results are not listed. Rule as the data show it: active = T/C of 150% or more; inactive = T/C below 125%.

Test system: L1210 leukemia ip in BDF1 mice, survival T/C
Assay: NCI In Vivo Anticancer Drug Screen. Data for tumor model L1210 Leukemia (intraperitoneal) in B6D2F1 (BDF1) mice
Conditions: endpoint: mean survival time, higher = longer survival
How it was run: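 In this screen, tumor-bearing mice given compound are compared to those given vehicle, and their survival values are reported as a treated-to-control quotient.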

[1] = dose: 50.0 mg/kg/injection, schedule: Q01DX001 (ip), vehicle: carboxymethylcellulose (CMC)
[2] = dose: 100.0 mg/kg/injection, schedule: Q01DX001 (ip), vehicle: carboxymethylcellulose (CMC)
[3] = dose: 200.0 mg/kg/injection, schedule: Q01DX001 (ip), vehicle: carboxymethylcellulose (CMC)
[4] = dose: 400.0 mg/kg/injection, schedule: Q01DX001 (ip), vehicle: carboxymethylcellulose (CMC)
[5] = dose: 100.0 mg/kg/injection, schedule: Q04DX003 (ip), vehicle: saline with Tween-80
[6] = dose: 100.0 mg/kg/injection, schedule: Q01DX001 (ip), vehicle: saline
[7] = dose: 200.0 mg/kg/injection, schedule: Q01DX001 (ip), vehicle: saline
[8] = dose: 400.0 mg/kg/injection, schedule: Q01DX001 (ip), vehicle: saline
[9] = dose: 100.0 mg/kg/injection, schedule: Q01DX001 (ip), vehicle: saline with Tween-80
[10] = dose: 200.0 mg/kg/injection, schedule: Q01DX001 (ip), vehicle: saline with Tween-80
[11] = dose: 100.0 mg/kg/injection, schedule: Q01DX009 (ip), vehicle: Klucel (hydroxypropylcellulose) (HPC)
[12] = dose: 100.0 mg/kg/injection, schedule: Q04DX003 (ip), vehicle: Klucel (hydroxypropylcellulose) (HPC)
[13] = dose: 200.0 mg/kg/injection, schedule: Q01DX009 (ip), vehicle: Klucel (hydroxypropylcellulose) (HPC)
[14] = dose: 200.0 mg/kg/injection, schedule: Q04DX003 (ip), vehicle: Klucel (hydroxypropylcellulose) (HPC)
[15] = dose: 400.0 mg/kg/injection, schedule: Q01DX009 (ip), vehicle: Klucel (hydroxypropylcellulose) (HPC)
[16] = dose: 400.0 mg/kg/injection, schedule: Q04DX003 (ip), vehicle: Klucel (hydroxypropylcellulose) (HPC)

Measured: T/C

CCCCN(C)/N=N/c1nc[nH]c1C(=O)NN
inactive: [1] 104 % of control | [2] 104 % of control | [3] 101 % of control | [4] 119 % of control

O=[N+]([O-])c1cc(C(F)(F)F)cc([N+](=O)[O-])c1N/N=C/c1ccc(Cl)cc1
inactive: dose: 12.5 mg/kg/injection, schedule: Q01DX009 (ip), vehicle: carboxymethylcellulose (CMC) 95 % of control and 102 % of control | dose: 25.0 mg/kg/injection, schedule: Q01DX009 (ip), vehicle: carboxymethylcellulose (CMC) 97 % of control and 88 % of control | [2] 100 % of control and 103 % of control | dose: 100.0 mg/kg/injection, schedule: Q04DX002 (ip), vehicle: carboxymethylcellulose (CMC) 100 % of control and 105 % of control | dose: 100.0 mg/kg/injection, schedule: Q04DX003 (ip), vehicle: carboxymethylcellulose (CMC) 92 % of control and 101 % of control | [3] 103 % of control and 91 % of control | dose: 200.0 mg/kg/injection, schedule: Q04DX002 (ip), vehicle: carboxymethylcellulose (CMC) 98 % of control and 90 % of control | dose: 200.0 mg/kg/injection, schedule: Q04DX003 (ip), vehicle: carboxymethylcellulose (CMC) 94 % of control and 96 % of control | [4] 103 % of control and 105 % of control | dose: 400.0 mg/kg/injection, schedule: Q01DX009 (ip), vehicle: carboxymethylcellulose (CMC) 86 % of control and 90 % of control | dose: 400.0 mg/kg/injection, schedule: Q04DX002 (ip), vehicle: carboxymethylcellulose (CMC) 86 % of control and 87 % of control | dose: 400.0 mg/kg/injection, schedule: Q04DX003 (ip), vehicle: carboxymethylcellulose (CMC) 92 % of control and 96 % of control

CSc1nc(N)nc2c1ncn2CCCl
inactive: dose: 100.0 mg/kg/injection, schedule: Q04DX003 (ip), vehicle: saline 103 % of control | dose: 200.0 mg/kg/injection, schedule: Q04DX003 (ip), vehicle: saline 96 % of control | dose: 400.0 mg/kg/injection, schedule: Q04DX003 (ip), vehicle: saline 97 % of control

CC1C(c2ccccc2)OCN1CN1C(=O)C=CC1=O (configuration not stated) (tested in a mixture with another compound)
inactive: [5] 90 % of control

O=C(NN=c1c2ccccc2sc2ccccc12)c1cccc2ccccc12
inactive: [6] 103 % of control | [7] 105 % of control | [8] 97 % of control

O=C1c2ccccc2C(=O)N1CN1CCC(CCCC2CCN(CN3C(=O)c4ccccc4C3=O)CC2)CC1
inactive: [5] 92 % of control

CN(C)CCCN=Cc1[nH]c(=S)[nH]c(=O)c1Cc1ccc(Cl)cc1
inactive: [9] 102 % of control | [10] 111 % of control | dose: 400.0 mg/kg/injection, schedule: Q01DX001 (ip), vehicle: saline with Tween-80 101 % of control

CN(C)c1ccccc1C(=O)N/N=C\c1ccc(O)c(O)c1
inactive: dose: 100.0 mg/kg/injection, schedule: Q01DX009 (ip), vehicle: saline with Tween-80 87 % of control | dose: 100.0 mg/kg/injection, schedule: Q04DX002 (ip), vehicle: saline with Tween-80 94 % of control | dose: 200.0 mg/kg/injection, schedule: Q01DX009 (ip), vehicle: saline with Tween-80 87 % of control | dose: 200.0 mg/kg/injection, schedule: Q04DX002 (ip), vehicle: saline with Tween-80 94 % of control | dose: 400.0 mg/kg/injection, schedule: Q01DX009 (ip), vehicle: saline with Tween-80 90 % of control | dose: 400.0 mg/kg/injection, schedule: Q04DX002 (ip), vehicle: saline with Tween-80 90 % of control

CC(C)(C)NC(=O)C(Cl)Cl
inactive: [9] 88 % of control | [10] 98 % of control

BrCCCC1CCCCC1
inactive: [11] 104 % of control | [12] 100 % of control | [13] 97 % of control | [14] 104 % of control | [15] 92 % of control | [16] 105 % of control

BrC1C2CC3C(C2)C13 (configuration not stated)
inactive: [11] 104 % of control | [12] 100 % of control | [13] 95 % of control | [14] 95 % of control | [15] 98 % of control | [16] 93 % of control

O=S(=O)(c1cc(Cl)ccc1Cl)N1CCc2ccccc2C1
inactive: dose: 100.0 mg/kg/injection, schedule: Q04DX002 (ip), vehicle: gum acacia 104 % of control | dose: 200.0 mg/kg/injection, schedule: Q04DX002 (ip), vehicle: gum acacia 93 % of control | dose: 400.0 mg/kg/injection, schedule: Q04DX002 (ip), vehicle: gum acacia 93 % of control

O=C(CCOCc1ccccc1)N1Cc2cc3ccccc3nc2C1=O
inactive: dose: 10.0 mg/kg/injection, schedule: Q07DX002 (ip), vehicle: alcohol 89 % of control | dose: 20.0 mg/kg/injection, schedule: Q07DX002 (ip), vehicle: alcohol 99 % of control | dose: 40.0 mg/kg/injection, schedule: Q07DX002 (ip), vehicle: alcohol 92 % of control | dose: 80.0 mg/kg/injection, schedule: Q07DX002 (ip), vehicle: alcohol 86 % of control

Cc1ccc(N=CNN=C(N)N)cc1
inactive: dose: 120.0 mg/kg/injection, schedule: Q01DX Z (oral), vehicle: methylcellulose (MC) 97 % of control | dose: 240.0 mg/kg/injection, schedule: Q01DX Z (ip), vehicle: methylcellulose (MC) 101 % of control | dose: 240.0 mg/kg/injection, schedule: Q01DX Z (oral), vehicle: methylcellulose (MC) 96 % of control | dose: 360.0 mg/kg/injection, schedule: Q01DX Z (ip), vehicle: methylcellulose (MC) 104 % of control | dose: 480.0 mg/kg/injection, schedule: Q01DX Z (ip), vehicle: methylcellulose (MC) 102 % of control | dose: 480.0 mg/kg/injection, schedule: Q01DX Z (oral), vehicle: methylcellulose (MC) 92 % of control

CC1=C2CC(C)(C)/C=C\C(=O)/C(C)=C\C3=C[C@H](C)C[C@]3(O2)C1=O
inactive: dose: 11.0 mg/kg/injection, schedule: Q01DX009 (ip), vehicle: saline 112 % of control | dose: 16.0 mg/kg/injection, schedule: Q01DX009 (ip), vehicle: saline 106 % of control | dose: 24.0 mg/kg/injection, schedule: Q01DX009 (ip), vehicle: saline 116 % of control

NC(=O)OCC(O)COc1ccc(Cl)cc1 (configuration not stated)
inactive: [6] 95 % of control | [7] 97 % of control | [8] 95 % of control

CN(C)c1nc2ccccc2o1
inactive: [2] 94 % of control | [3] 102 % of control | [4] 105 % of control

CN(C)c1ccc(C=Nc2ccc(/C=C3\C=Cc4ccccc43)cc2)cc1
inactive: [1] 91 % of control | [2] 93 % of control | [3] 96 % of control | [4] 96 % of control

O=NN(CCCl)C(=O)Nc1ccc2c(c1)Cc1ccccc1-2
inactive: dose: 40.0 mg/kg/injection, schedule: Q01DX009 (ip), vehicle: other 113 % of control | dose: 150.0 mg/kg/injection, schedule: Q01DX009 (ip), vehicle: carboxymethylcellulose (CMC) 96 % of control | dose: 300.0 mg/kg/injection, schedule: Q01DX001 (ip), vehicle: carboxymethylcellulose (CMC) 102 % of control
active: dose: 10.0 mg/kg/injection, schedule: Q01DX009 (ip), vehicle: other 156 % of control | dose: 20.0 mg/kg/injection, schedule: Q01DX009 (ip), vehicle: other 167 % of control | dose: 44.0 mg/kg/injection, schedule: Q01DX009 (ip), vehicle: carboxymethylcellulose (CMC) 164 % of control | dose: 66.0 mg/kg/injection, schedule: Q01DX009 (ip), vehicle: carboxymethylcellulose (CMC) 208 % of control | dose: 100.0 mg/kg/injection, schedule: Q01DX009 (ip), vehicle: carboxymethylcellulose (CMC) 175 % of control

CC(C)=CCCOC(N)=O
inactive: [5] 104 % of control | dose: 200.0 mg/kg/injection, schedule: Q04DX003 (ip), vehicle: saline with Tween-80 102 % of control | dose: 400.0 mg/kg/injection, schedule: Q04DX003 (ip), vehicle: saline with Tween-80 98 % of control

c1ccc(/C(=N\Nc2nc3ccccc3s2)c2ccncc2)cc1
inactive: [11] 89 % of control | [13] 91 % of control | [15] 96 % of control

CC(C)(C)C1CCC(OC=O)CC1 (configuration not stated)
inactive: [12] 92 % of control | [14] 93 % of control

CCOCCc1ccncc1
inactive: dose: 50.0 mg/kg/injection, schedule: Q01DX009 (ip), vehicle: saline 101 % of control | dose: 100.0 mg/kg/injection, schedule: Q01DX009 (ip), vehicle: saline 94 % of control | dose: 200.0 mg/kg/injection, schedule: Q01DX009 (ip), vehicle: saline 90 % of control
